Assay results: PubChem BioAssay AID1963435 (Molecular Pharmacology Branch, DTP, NCI, 2024)
“And” between values parts separate entries of the source, which are not always exact repeats. Identical values can stand only once. One block for each compound: values may come before it.

Test system: PANC-1 complex spheroid growth, percent test/control
Test: Anticancer human tumor PANC-1 cell line growth inhibition [Asc];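 further: spheroids exposed to agents for 7 days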;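 on viability, T/C: percent viability relative to DMSO vehicle wells taken as 100%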
Details: for viability, T/C: stronger effect = lower value
Protocol: Multicellular complex tumor spheroid response to apoptosis pathway targeting inhibitors Alrizomadlin, Pelcitoclax, and Dasminapant in combination with a variety of drugs and investigational agents in selected tumor cell lines
The MDM2 inhibitor alrizomadlin, the Bcl-2/Bcl-xL inhibitor pelcitoclax, and the IAPs inhibitor dasminapant were evaluated both individually and in combination with standard of care and investigational anticancer small molecules within a complex spheroid model of solid tumors. . Complex spheroids include a stromal component modeled by human endothelial cells (HUVEC) and fibroblasts modeled by human mesenchymal stem cells (MSCs). The concentration ranges selected for each drug and investigational agent were based upon clinically achievable concentrations if the clinical Cmax of the agent was known.
Compounds. The drugs and investigational agents: alrizomadlin (APG-115; NSC831270), pelcitoclax (APG-1252; NSC835773), dasminapant (APG-1387;NSC834197), TAK-243 (NSC785004), copanlisib (NSC809693), olaparib (NSC753686), talazoparib (NSC767125), cobimetinib (NSC 768068), eltanexor (KPT-8602, NSC 794443), abemaciclib (NSC 768073), sotorasib (NSC818433), adagrasib (NSC 831453), MRTX-1133 (NSC 836407), Iadademestat (ORY1001, NSC 806812), and RMC-4630 (NSC839698), were obtained from the NCI Developmental Therapeutics Program Chemical Repository. The FDA-approved anticancer drug set is available from the Developmental Therapeutics Program at https://dtp.cancer.gov/organization/dscb/obtaining/available plates.htm. […] The stock solutions were prepared in dimethyl sulfoxide (DMSO, Sigma-Aldrich, St. Louis, MO, cat. D2650) at 800-fold the tested concentration and stored at -70 degrees C prior to their use. All drugs and investigational agents were tested over a range starting from a high concentration at or near the clinical Cmax and decreasing in half-log increments. If the clinical Cmax for an agent had not been determined, the highest concentration tested was 10 microM.
The patient-derived cancer (PDC) cell lines include five colon adenocarcinomas: 186277-243-T-J2-PDC, 616215-338-R-J1-PDC, 439559-082-T-J2-PDC, 463943-066-T-J2-PDC, and 519858-162-T-J1-PDC; three pancreatic carcinomas: 323965-272-R-J2-PDC, 521955-158-R6-J3-PDC, and 521955-158-R2-J5-PDC; two uterine sarcomas: 327498-152-R-J2-PDC and 993429-296-R-J1-PDC; two rhabdomyosarcomas: 755483-174-R-J1-PDC and 772245-204-R-J1-PDC; two soft tissue sarcomas: 126254-015-R-J1-PDC and 494315-158-R-J1-PDC; two malignant fibrous histiocytomas: 317291-083-R-J1-PDC and 596521-263-R-J1-PDC; two breast carcinomas: 171881-019-R-J1-PDC and 885512-296-R-J2-PDC; and one ovarian carcinoma: 6556581-035-R-J-PDC were obtained from the NCI PDMR, (https://pdmr.cancer.gov). The established cell lines HSSY-2 synovial sarcoma (RRID:CVCL 8719), SYO-1 synovial sarcoma (RRID:CVCL_7146), MPNST malignant peripheral neural sheath tumor were obtained from the Sloan Kettering Institute. The following established cell lines were purchased from the American Type Culture Collection (ATCC, Manassas, VA), Sor the received from the NCI repository:, PANC-1 pancreatic carcinoma (CRL-1469, RRID:CVCL_0480), OVCAR-5 ovarian carcinoma (RRID:CVCL_1628), OVCAR-8 ovarian carcinoma (RRID:CVCL_1629), , MCF-7 breast carcinoma (CRL-12584, RRID:CVCL_0031), MDA-MB-231 breast carcinoma (CRL-12532, RRID:CVCL_0062), NCI-H1876 small cell lung carcinoma (CRL-5902, RRID:CVCL_1503), NCI-H510A small cell lung carcinoma (HTB-184, RRID:CVCL_1565), NCI-H1417 (CRL-5869, RRID:CVCL_1469), and NCI-H196 small cell lung carcinoma (CRL-5823, RRID:CVCL_1509). Dr. Peter Houghton (Greehey Children's Cancer Research Institute, University of Texas Health Science Center, San Antonio, TX) provided Rh-18 rhabdomyosarcoma (RRID:CVCL_1659). Pooled donor human umbilical vein endothelial cells (HUVEC, Lonza, cat. CC-2519) and human mesenchymal stem cells (hMSC, Lonza, cat. PT-2501) were purchased from Lonza (Walkersville, MD).
Cell Culture. […]

IC50 (curve of compound): 7.1 µM and 7.4 µM and 6.98 µM
Compound: C=C(F)C(=O)N1CCN(c2nc(OCC3CCCN3C)nc3c2CCN(c2cccc4cccc(Cl)c24)C3)CC1CC#N (centres undefined)
viability, T/C (compound 0.0316 µM): 108% and 97% and 96.2%
viability, T/C (compound 0.1 µM): 105% and 86% and 95%
viability, T/C (compound 0.316 µM): 94.3% and 104% and 98%
viability, T/C (compound 1 µM): 101% and 96.9% and 96.6%
viability, T/C (compound 3.16 µM): 97.6% and 102% and 90.8%
viability, T/C (compound 10 µM): 29.9% and 33.2% and 31.5%

IC50 (curve of first compound, second compound 0.00316 µM): > 3 µM
IC50 (curve of first compound, second compound 0.01 µM): > 3 µM
IC50 (curve of first compound, second compound 0.0316 µM): > 3 µM
IC50 (curve of first compound, second compound 0.1 µM): > 3 µM
IC50 (curve of first compound, second compound 0.316 µM): > 3 µM
IC50 (curve of first compound, second compound 1 µM): > 3 µM
Compound: Cc1nc(N2CCC3(CC2)COC(C)C3N)c(CO)nc1Sc1ccnc(N)c1Cl (centres undefined) + CNC(C)C(=O)NC1CN(S(=O)(=O)c2cccc(S(=O)(=O)N3CCC4CCC(C(=O)NC(c5ccccc5)c5ccccc5)N4C(=O)C(NC(=O)C(C)NC)C3)c2)CCC2CCC(C(=O)NC(c3ccccc3)c3ccccc3)N2C1=O
viability, T/C (second compound 0.00316 µM, first compound 0.00949 µM): 94.8%
viability, T/C (second compound 0.00316 µM, first compound 0.03 µM): 85%
viability, T/C (second compound 0.00316 µM, first compound 0.0949 µM): 96.7%
viability, T/C (second compound 0.00316 µM, first compound 0.3 µM): 84.3%
viability, T/C (second compound 0.00316 µM, first compound 0.949 µM): 87.7%
viability, T/C (second compound 0.00316 µM, first compound 3 µM): 87.1%
viability, T/C (second compound 0.01 µM, first compound 0.00949 µM): 91.1%
viability, T/C (second compound 0.01 µM, first compound 0.03 µM): 82.6%
viability, T/C (second compound 0.01 µM, first compound 0.0949 µM): 79.7%
viability, T/C (second compound 0.01 µM, first compound 0.3 µM): 89.4%
viability, T/C (second compound 0.01 µM, first compound 0.949 µM): 85.8%
viability, T/C (second compound 0.01 µM, first compound 3 µM): 95.1%
viability, T/C (second compound 0.0316 µM, first compound 0.00949 µM): 93.4%
viability, T/C (second compound 0.0316 µM, first compound 0.03 µM): 79.9%
viability, T/C (second compound 0.0316 µM, first compound 0.0949 µM): 92.8%
viability, T/C (second compound 0.0316 µM, first compound 0.3 µM): 86.3%
viability, T/C (second compound 0.0316 µM, first compound 0.949 µM): 87.6%
viability, T/C (second compound 0.0316 µM, first compound 3 µM): 78.9%
viability, T/C (second compound 0.1 µM, first compound 0.00949 µM): 85.3%
viability, T/C (second compound 0.1 µM, first compound 0.03 µM): 93%
viability, T/C (second compound 0.1 µM, first compound 0.0949 µM): 90%
viability, T/C (second compound 0.1 µM, first compound 0.3 µM): 83.8%
viability, T/C (second compound 0.1 µM, first compound 0.949 µM): 90.9%
viability, T/C (second compound 0.1 µM, first compound 3 µM): 89.5%
viability, T/C (second compound 0.316 µM, first compound 0.00949 µM): 89.5%
viability, T/C (second compound 0.316 µM, first compound 0.03 µM): 84.1%
viability, T/C (second compound 0.316 µM, first compound 0.0949 µM): 86.7%
viability, T/C (second compound 0.316 µM, first compound 0.3 µM): 84.4%
viability, T/C (second compound 0.316 µM, first compound 0.949 µM): 83.4%
viability, T/C (second compound 0.316 µM, first compound 3 µM): 81.2%
viability, T/C (second compound 1 µM, first compound 0.00949 µM): 86.5%
viability, T/C (second compound 1 µM, first compound 0.03 µM): 89.8%
viability, T/C (second compound 1 µM, first compound 0.0949 µM): 82.6%
viability, T/C (second compound 1 µM, first compound 0.3 µM): 82.7%
viability, T/C (second compound 1 µM, first compound 0.949 µM): 75.6%
viability, T/C (second compound 1 µM, first compound 3 µM): 85.9%
